Experimental data published in US20100158857A1, “Compositions and methods for the inhibition of endothelial nitric oxide synthase activity” (University Of utah Research Foundation, priority 2006, published 2010).

What was measured:
C57BL/6 mice [1] = test: Systolic blood pressure by tail cuff method in IL-2 treated mice; type: in vivo
Experimental: Systolic blood pressure was measured via tail cuff method (Stoelting, Wood Dell, Ill.) using PowerLab digital signal transducer (AD instruments, Mountain View, Calif.). […] The lower limit of blood pressure detectable using this instrumentation is about 40 mm of Hg. This value of blood pressure was assigned whenever no detectable value could be obtained.
(§1) 1400 W was dissolved at a concentration of 1M in sterile PBS and administered via continuous subcutaneous infusion by Alzet mini osmotic pumps (Model 2001, Alzet Corporation, Cupertino, Calif.). Each pump contained 225 μL of solution that released a constant volume of 28 μL/day, resulting in a calculated delivery of 7 mg 1400 W/mouse/day.
(§2) MLA was dissolved in sterile ultra-filtered water at a concentration of 3.38M and loaded into pre-equilibrated osmotic pumps containing 225 μL of solution that released a constant volume of 28 μL/day, resulting in a calculated delivery of 18.5 mg MLA/mouse/day.

C57BL/6 mice [2] = test: VLS evaluation: [125I]-labeled albumin accumulation in peritoneal fluid of IL-2 treated mice; type: in vivo; conditions: for Effect on IL-2 induced radio-albumin accumulation in peritoneal fluid / VLS: given with IL-2, M40403: iNOS WT or iNOS−/− mice, 1400 W: IL-2 treated mice; for [125I] labeled albumin retention in peritoneal fluid: MLA 18.5 mg/mouse/day s.c. during IL-2 treatment
Experimental: Peritoneal fluid was collected using blotting paper. Liver, spleen, intestines, kidneys, lungs and heart were also excised and analyzed for [^125l]-albumin accumulation. Data was expressed as percentage of radiolabeled albumin recovered from each tissue with the total amount recovered from each animal. This form of analysis minimizes differences induced by variability in injection technique.
as §1, §2

peritoneal exudate cells = test: Inhibition of NO synthesis in IFNγ/LPS-stimulated peritoneal exudate cells (Griess reaction); type: cell-based; conditions: 48 hours; highest concentration MLA 1 mM, Polymethylarginine 400 uM
Experimental: First, peritoneal exudate cells were elicited by thioglycolate. These cells were then harvested and cultured in 96 well microtiter wells at 1×10^6 overnight in DMEM media with 5% FCS. Media was then replaced with DMEM containing 50 Units/ml of IFNγ and 100 ng/ml bacterial lipopolysaccharide. Serial dilutions of either N^G-monomethy-L-larginine (MLA) or Polymethylarginine (poly-MLA 7-mer) were then added to experimental wells. The highest concentration of MLA was 1 mM and of Polymethylarginine was 400 uM.
The cultures were then incubated for 48 hours and culture supernatants were assayed for the NO metabolite nitrate using the Griess reaction after nitrate reduction.

[3] = Retention of modified NOS inhibitors in the vasculature; conditions: due to their size
[4] = iNOS−/− mice, given together with IL-2

CC(=N)NCc1cccc(CN)c1 [1400 W]
Systolic blood pressure (C57BL/6 mice [1]; mice treated with IL-2 plus 1400 W, continuous s.c. infusion 7 mg/mouse/day): 45±7 mm of Hg
Effect on IL-2 induced radio-albumin accumulation in peritoneal fluid / VLS (C57BL/6 mice [2]): did not inhibit

[Cl-].[Cl-].[Mn+2].c1cc2nc(c1)CN[C@@H]1CCCC[C@H]1NCCN[C@@H]1CCCC[C@H]1NC2 [M40403]
Systolic blood pressure (C57BL/6 mice [1]; [4]): 85±5 mm of Hg
Effect on IL-2 induced radio-albumin accumulation in peritoneal fluid / VLS (C57BL/6 mice [2]): did not reverse

CNC(=N)NCCC[C@H](N)C(=O)O [MLA, N^G-monomethyl-L-arginine]
Systolic blood pressure (C57BL/6 mice [1]; [4]): 80±10 mm of Hg
Effect of serial dilutions on NO production (peritoneal exudate cells): blocked NO production
[125I] labeled albumin retention in peritoneal fluid (C57BL/6 mice [2]; iNOS WT mice): 0.562±0.24%
[125I] labeled albumin retention in peritoneal fluid (C57BL/6 mice [2]; iNOS−/− mice): 1.66±0.06%

CNC(=N)NCCC[C@H](NC(=O)[C@H](CCCNC(=N)NC)NC(=O)[C@H](CCCNC(=N)NC)NC(=O)[C@H](CCCNC(=N)NC)NC(=O)[C@H](CCCNC(=N)NC)NC(=O)[C@H](CCCNC(=N)NC)NC(=O)[C@@H](N)CCCNC(=N)NC)C(=O)O [poly-MLA, (N^G-mono-methyl-L-arginine)^7]
Retention in the vasculature [3]: retained in the vasculature
